Test results from patent publication US9409952B2, “Peptide-compound cyclization method” (Chugai Seiyaku Kabushiki Kaisha, priority 2011, dated 2016).
Like-named read-outs stand apart in the source and are kept apart here. Starred links: 1 amine or outer side, 2 acyl side, 3 side chain; linkers in the order of their positions; H or OH if unused. Positions of bridges follow the written chain, without caps; N, C: chain ends. Non-standard residues stand in square brackets, D forms with d. Residues, ends and D or L forms follow the SMILES beside them. *: point of attachment. Phe(4-(CH2)5CO) = O=C([C@H](Cc1ccc(CCCCCC(=O)[*:3])cc1)N[*:1])[*:2]; NMeF = CN[C@@H](Cc1ccccc1)C(=O)O; NMeI = CC[C@H](C)[C@H](NC)C(=O)O; NMeβAla = CN(CCC(=O)[*:2])[*:1]; NMeL = CN[C@@H](CC(C)C)C(=O)O; NMeV = CN[C@H](C(=O)O)C(C)C; NMeA = CN[C@@H](C)C(=O)O; Piperidide = C1CCN(*)CC1; dNMeA = CN[C@H](C)C(=O)O; Sar = CNCC(=O)O; tBu = CC(C)(C)*

Experiments:
[1] = Metabolic stability in human hepatic microsome; format: in vitro ADME; conditions: microsomes
[2] = PAMPA (parallel artificial membrane permeability assay); format: in vitro ADME; conditions: for Papp at 18 hours, 50 µM: PAMPA
Summary of the method: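 Artificial membrane was 10% (w/v) egg lecithin plus 0.5% (w/v) cholesterol in dodecane on a PVDF filter. A 10 mM DMSO stock was added at 0.5% (v/v) to donor buffer (50 mM MOPSO, pH 6.5, 5.0% glycocholic acid). After 18 h at 37 °C, LC/MS or LC/UV gave donor and acceptor levels for Pe.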

[3] = pH 7.4, human hepatic microsome, NADPH(+), read-out: CL NADPH(+)
[4] = membrane permeation rate (Pe), 50 mM MOPSO buffer pH 6.5 with 5.0% glycocholic acid, 37° C., 18 hours, read-out: iPAMPA Pe
[5] = membrane permeation rate (Pe), 50 mM MOPSO buffer pH 6.5 with 5.0% glycocholic acid, 37° C., 18 hours

Structure (SMILES)	microsomal CLint at 1 uM ([1]; human, pH 7.4, CL NADPH(+))	Papp at 18 hours, 50 µM ([2]; pH 6.5)	microsomal CLint at 1 uM [1, 3]	Papp at 18 hours, 50 µM [2, 4]	iPAMPA Pe [2, 5]
CC(C)C[C@@H]1NC(=O)CN(C)C(=O)[C@H](C(C)C)N(C)C(=O)[C@H](C)NC(=O)[C@H]([C@@H](C)O)NC(=O)[C@H](CC(C)C)N(C)C(=O)[C@H](C)N(C)C(=O)[C@H](CC(C)C)N(C)C(=O)[C@H](Cc2ccccc2)NC(=O)CCN(C)C(=O)C[C@@H](C(=O)N2CCCCC2)NC1=O [DP-102] ([NMeβAla]F[NMeL][NMeA][NMeL]TA[NMeV][Sar]LD-Piperidide; lactam N-11)	5 µL/min/mg	18 nm/s			
CC(C)C[C@@H]1NC(=O)[C@H](Cc2ccccc2)N(C)C(=O)CCN(C)C(=O)C[C@@H](C(=O)N2CCCCC2)NC(=O)[C@H](CC(C)C)N(C)C(=O)[C@H](C)N(C)C(=O)[C@H]([C@@H](C)O)NC(=O)[C@H](CC(C)C)N(C)C(=O)[C@H](Cc2ccccc2)N(C)C1=O [DP-268] ([NMeβAla][NMeF]L[NMeF][NMeL]T[NMeA][NMeL]D-Piperidide; lactam N-9)			508 µL/min/mg	500 nm/s	
CC(C)C[C@H]1C(=O)N[C@@H]([C@@H](C)O)C(=O)N(C)[C@@H](C)C(=O)N(C)[C@@H](CC(C)C)C(=O)N[C@@H](C(C)C)C(=O)N[C@H](C(=O)N(C)[C@@H](Cc2ccccc2)C(=O)N(C)[C@@H](Cc2ccccc2)C(=O)N[C@@H](C)C(=O)N2CCCCC2)CC(=O)N(C)[C@@H](C)C(=O)N(C)[C@@H](Cc2ccccc2)C(=O)N(C)CC(=O)N1C [DP-405] ([NMeA][NMeF][Sar][NMeL]T[NMeA][NMeL]VD[NMeF][NMeF]A-Piperidide; lactam N-9)			83 µL/min/mg	260 nm/s	
CC[C@H](C)[C@H]1C(=O)N[C@H](C(=O)N2CCCCC2)CC(=O)N(C)CCC(=O)N[C@@H](Cc2ccccc2)C(=O)N(C)[C@@H](CC(C)C)C(=O)N[C@@H](COC(C)(C)C)C(=O)NCC(=O)N2CCC[C@H]2C(=O)N[C@@H]([C@@H](C)O)C(=O)N[C@@H](CC(C)C)C(=O)N(C)[C@@H](C)C(=O)N[C@@H](Cc2ccccc2)C(=O)N1C [DP-222] ([NMeβAla]F[NMeL]S(tBu)GPTL[NMeA]F[NMeI]D-Piperidide; lactam N-12)			30 µL/min/mg	160 nm/s	
CC(C)C[C@H]1C(=O)N[C@@H](C)C(=O)N(C)[C@@H](C)C(=O)N[C@H](C(=O)N(C)[C@@H](Cc2ccccc2)C(=O)N[C@@H](C)C(=O)N2CCCCC2)CC(=O)N(C)[C@@H](C)C(=O)N(C)[C@@H](C(C)C)C(=O)N(C)[C@@H](C)C(=O)N[C@@H]([C@@H](C)O)C(=O)N(C)[C@@H](C)C(=O)N[C@@H](Cc2ccccc2)C(=O)N1C [DP-458] ([NMeA][NMeV][NMeA]T[NMeA]F[NMeL]A[NMeA]D[NMeF]A-Piperidide; lactam N-10)			10 µL/min/mg	77 nm/s	
CC[C@H](C)[C@H]1C(=O)N[C@H](C(=O)N2CCCCC2)CC(=O)N(C)CCC(=O)N(C)[C@@H](Cc2ccccc2)C(=O)N(C)[C@@H](CC(C)C)C(=O)N[C@@H]([C@@H](C)O)C(=O)N(C)CC(=O)N(C)[C@@H](CC(C)C)C(=O)N[C@@H](COC(C)(C)C)C(=O)N1C [DP-155] ([NMeβAla][NMeF][NMeL]T[Sar][NMeL]S(tBu)[NMeI]D-Piperidide; lactam N-9)	101 µL/min/mg	550 nm/s			
CC[C@H](C)[C@H]1C(=O)N(C)[C@@H](CC(C)C)C(=O)N[C@H](C(=O)N2CCCCC2)CC(=O)N(C)CC(=O)N[C@@H]([C@@H](C)O)C(=O)N(C)[C@@H](C)C(=O)N(C)[C@@H](C(C)C)C(=O)N[C@@H](Cc2ccccc2)C(=O)N(C)CC(=O)N[C@@H](C)C(=O)N1C [DP-75] ([Sar]T[NMeA][NMeV]F[Sar]A[NMeI][NMeL]D-Piperidide; lactam N-10)	27 µL/min/mg	33 nm/s			
CC(C)C[C@H]1C(=O)N(C)[C@@H](Cc2ccccc2)C(=O)N[C@H](C(=O)N2CCCCC2)CC(=O)N(C)CC(=O)N[C@@H]([C@@H](C)O)C(=O)N(C)[C@@H](C)C(=O)N[C@@H](COC(C)(C)C)C(=O)N(C)[C@@H](Cc2ccccc2)C(=O)N1C [DP-521] ([Sar]T[NMeA]S(tBu)[NMeF][NMeL][NMeF]D-Piperidide; lactam N-8)			125 µL/min/mg	440 nm/s	
CC(C)C[C@@H]1NC(=O)[C@H](C(C)C)N(C)C(=O)[C@H](Cc2ccccc2)NC(=O)CN(C)C(=O)[C@H]([C@@H](C)O)NC(=O)[C@H](C)N(C)C(=O)[C@H](CC(C)C)N(C)C(=O)[C@@H](C(C)C)NC(=O)C[C@@H](C(=O)N2CCCCC2)NC(=O)[C@H](C)NC(=O)[C@H](CC(C)C)N(C)C1=O [DP-143] ([dV][NMeL][NMeA]T[Sar]F[NMeV]L[NMeL]AD-Piperidide; lactam N-11)	25 µL/min/mg	200 nm/s			
CC(C)C[C@H]1C(=O)N(C)[C@@H](CC(C)C)C(=O)N[C@H](C(=O)N2CCCCC2)CC(=O)N[C@@H](C(C)C)C(=O)N(C)[C@@H](Cc2ccccc2)C(=O)N[C@@H]([C@@H](C)O)C(=O)N(C)CC(=O)N[C@@H](COC(C)(C)C)C(=O)N1C [DP-693] (V[NMeF]T[Sar]S(tBu)[NMeL][NMeL]D-Piperidide; lactam N-8)			246 µL/min/mg	350 nm/s	
CC(C)C[C@H]1C(=O)NCC(=O)N[C@H](C(=O)N2CCCCC2)CC(=O)N(C)CCC(=O)N[C@@H]([C@@H](C)O)C(=O)N(C)[C@@H](C)C(=O)N[C@@H](COC(C)(C)C)C(=O)N(C)[C@@H](Cc2ccccc2)C(=O)N1C [DP-522] ([NMeβAla]T[NMeA]S(tBu)[NMeF][NMeL]GD-Piperidide; lactam N-8)			87 µL/min/mg	53 nm/s	
CC[C@H](C)[C@H]1C(=O)N[C@@H](C)C(=O)N(C)[C@@H](CC(C)C)C(=O)N[C@@H](COC(C)(C)C)C(=O)N(C)[C@@H](CC(C)C)C(=O)N[C@H](C(=O)N2CCCCC2)Cc2ccc(cc2)CCCCCC(=O)N[C@@H](Cc2ccccc2)C(=O)N(C)[C@@H](Cc2ccccc2)C(=O)N(C)[C@@H](CC(C)C)C(=O)N[C@@H]([C@@H](C)O)C(=O)N(C)[C@@H](C)C(=O)N1C [DP-873] (F[NMeF][NMeL]T[NMeA][NMeI]A[NMeL]S(tBu)[NMeL][Phe(4-(CH2)5CO)]-Piperidide; lactam N-11)			39 µL/min/mg		1.0E−07
CC[C@H](C)[C@H]1C(=O)N[C@H](C(=O)N2CCCCC2)Cc2ccc(cc2)CCCCCC(=O)N[C@@H]([C@@H](C)O)C(=O)N(C)[C@@H](Cc2ccccc2)C(=O)N[C@@H](CC(C)C)C(=O)N2CCC[C@H]2C(=O)N[C@@H](C(C)C)C(=O)N[C@@H](Cc2ccccc2)C(=O)N(C)CC(=O)N[C@@H](CC(C)C)C(=O)N[C@@H](C)C(=O)N1C [DP-878] (T[NMeF]LPVF[Sar]LA[NMeI][Phe(4-(CH2)5CO)]-Piperidide; lactam N-11)			152 µL/min/mg	230 nm/s	
CC[C@H](C)[C@H]1C(=O)NCC(=O)N(C)[C@@H](CC(C)C)C(=O)N[C@@H]([C@@H](C)O)C(=O)N2CCC[C@H]2C(=O)N[C@@H](Cc2ccccc2)C(=O)N[C@H](C(=O)N2CCCCC2)CC(=O)N(C)[C@@H](C)C(=O)N[C@@H](Cc2ccccc2)C(=O)N(C)[C@@H](CC(C)C)C(=O)N[C@@H](CC(C)C)C(=O)N1C [DP-236] ([NMeA]F[NMeL]L[NMeI]G[NMeL]TPFD-Piperidide; lactam N-11)			79 µL/min/mg		7.0E−05
CC(C)C[C@H]1C(=O)N[C@@H](COC(C)(C)C)C(=O)N(C)[C@@H](Cc2ccccc2)C(=O)N(C)[C@@H](C)C(=O)N[C@@H](Cc2ccccc2)C(=O)N(C)[C@@H](C(C)C)C(=O)N[C@H](C(=O)N2CCCCC2)Cc2ccc(cc2)CCCCCC(=O)N[C@@H]([C@@H](C)O)C(=O)NCC(=O)N1C [DP-848] (TG[NMeL]S(tBu)[NMeF][NMeA]F[NMeV][Phe(4-(CH2)5CO)]-Piperidide; lactam N-9)			148 µL/min/mg	300 nm/s	
CC(C)C[C@@H]1NC(=O)[C@H](Cc2ccccc2)N(C)C(=O)CNC(=O)[C@H]([C@@H](C)O)NC(=O)[C@H](CC(C)C)N(C)C(=O)[C@H](COC(C)(C)C)NC(=O)[C@H](C)N(C)C(=O)C[C@@H](C(=O)N2CCCCC2)NC(=O)[C@H](Cc2ccccc2)NC(=O)[C@H](CC(C)C)N(C)C1=O [DP-437] ([NMeA]S(tBu)[NMeL]TG[NMeF]L[NMeL]FD-Piperidide; lactam N-10)			265 µL/min/mg	370 nm/s	
CC[C@H](C)[C@@H]1NC(=O)CN(C)C(=O)[C@H](Cc2ccccc2)N(C)C(=O)[C@H](C)N(C)C(=O)[C@H]([C@@H](C)O)NC(=O)[C@H](CC(C)C)N(C)C(=O)[C@@H](C)N(C)C(=O)C[C@@H](C(=O)N(C)[C@@H](Cc2ccccc2)C(=O)N[C@@H](C)C(=O)N2CCCCC2)NC(=O)[C@H](C(C)C)N(C)C(=O)[C@H](CC(C)C)N(C)C1=O [DP-371] ([dNMeA][NMeL]T[NMeA][NMeF][Sar]I[NMeL][NMeV]D[NMeF]A-Piperidide; lactam N-10)			31 µL/min/mg	340 nm/s	
CC(C)C[C@H]1C(=O)N[C@H](C(=O)N(C)[C@@H](Cc2ccccc2)C(=O)N[C@@H](C)C(=O)N2CCCCC2)CC(=O)N(C)[C@@H](C)C(=O)N[C@@H]([C@@H](C)O)C(=O)N(C)[C@@H](C)C(=O)N(C)[C@@H](CC(C)C)C(=O)N[C@@H](C(C)C)C(=O)N(C)[C@@H](Cc2ccccc2)C(=O)N[C@@H](Cc2ccccc2)C(=O)N1C [DP-386] ([NMeA]T[NMeA][NMeL]V[NMeF]F[NMeL]D[NMeF]A-Piperidide; lactam N-9)			222 µL/min/mg	540 nm/s	
CC(C)C[C@H]1C(=O)N(C)[C@@H](Cc2ccccc2)C(=O)N[C@H](C(=O)N2CCCCC2)CC(=O)N(C)[C@H](C)C(=O)N[C@@H]([C@@H](C)O)C(=O)N(C)[C@@H](C)C(=O)N(C)[C@@H](Cc2ccccc2)C(=O)N[C@@H](COC(C)(C)C)C(=O)NCC(=O)N1C [DP-270] ([dNMeA]T[NMeA][NMeF]S(tBu)G[NMeL][NMeF]D-Piperidide; lactam N-9)			79 µL/min/mg	220 nm/s	
